Source: US20210122730A1, “GLUCOCORTICOID RECEPTOR MODULATORS” (ORIC Pharmaceuticals, Inc., priority 2017, published 2021)

Assays:
GR = biological target: T1, GR (Homo sapiens, UniProt P04150); test: In Vitro GR Luciferase Reporter Assay (antagonist mode, CHO-K1-GR-MMTV-Luc reporter cells); assay type: cell-based; details: antagonist mode, 10 nM Dexamethasone
T1 construct: expressed in transfected cells; host or cells: CHO-K1
T1 sequence (P04150 1-777): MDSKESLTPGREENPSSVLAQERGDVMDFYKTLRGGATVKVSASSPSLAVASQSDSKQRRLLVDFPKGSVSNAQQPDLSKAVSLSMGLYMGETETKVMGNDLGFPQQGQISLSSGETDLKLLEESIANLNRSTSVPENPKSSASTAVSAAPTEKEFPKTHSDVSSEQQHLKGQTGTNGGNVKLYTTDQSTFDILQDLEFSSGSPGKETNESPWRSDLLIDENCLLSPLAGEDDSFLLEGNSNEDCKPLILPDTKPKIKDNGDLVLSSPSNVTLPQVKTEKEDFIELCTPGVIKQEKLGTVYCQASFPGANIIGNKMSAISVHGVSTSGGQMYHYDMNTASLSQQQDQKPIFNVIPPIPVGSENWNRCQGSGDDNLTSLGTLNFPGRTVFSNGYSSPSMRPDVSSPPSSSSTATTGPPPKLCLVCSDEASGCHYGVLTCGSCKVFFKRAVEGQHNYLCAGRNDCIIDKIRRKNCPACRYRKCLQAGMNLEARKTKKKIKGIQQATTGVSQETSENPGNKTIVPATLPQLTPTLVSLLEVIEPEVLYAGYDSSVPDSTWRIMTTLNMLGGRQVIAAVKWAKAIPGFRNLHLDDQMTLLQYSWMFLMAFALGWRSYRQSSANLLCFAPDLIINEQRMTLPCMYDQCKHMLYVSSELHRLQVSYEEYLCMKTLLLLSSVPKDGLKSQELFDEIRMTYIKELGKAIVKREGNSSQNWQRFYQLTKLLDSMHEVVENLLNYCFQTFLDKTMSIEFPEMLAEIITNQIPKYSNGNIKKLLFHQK
Outline: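 Antagonist mode: compounds (8 serial 1:5 dilutions) added to GR-MMTV-luciferase CHO-K1 reporter cells co-exposed to 10 nM dexamethasone final, in phenol red-free DMEM plus 10% CSS. After roughly 18-24 h at 37° C, OneGlo luminescence read and IC50 calculated.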

CYP2C8 = biological target: T2, CYP2C8 (Homo sapiens, UniProt P10632); test: CYP Inhibition Assay (CYP2C8, human liver microsomes, paclitaxel substrate); assay type: in vitro ADME; details: pH 7.4; pooled human liver microsomes 0.1 mg/mL, probe substrate paclitaxel
T2 construct: Pooled human microsomes were obtained from Sekisui XenoTech, KS; tissue Sekisui XenoTech, KS; host or cells: pooled human liver microsomes
T2 sequence (P10632 1-490): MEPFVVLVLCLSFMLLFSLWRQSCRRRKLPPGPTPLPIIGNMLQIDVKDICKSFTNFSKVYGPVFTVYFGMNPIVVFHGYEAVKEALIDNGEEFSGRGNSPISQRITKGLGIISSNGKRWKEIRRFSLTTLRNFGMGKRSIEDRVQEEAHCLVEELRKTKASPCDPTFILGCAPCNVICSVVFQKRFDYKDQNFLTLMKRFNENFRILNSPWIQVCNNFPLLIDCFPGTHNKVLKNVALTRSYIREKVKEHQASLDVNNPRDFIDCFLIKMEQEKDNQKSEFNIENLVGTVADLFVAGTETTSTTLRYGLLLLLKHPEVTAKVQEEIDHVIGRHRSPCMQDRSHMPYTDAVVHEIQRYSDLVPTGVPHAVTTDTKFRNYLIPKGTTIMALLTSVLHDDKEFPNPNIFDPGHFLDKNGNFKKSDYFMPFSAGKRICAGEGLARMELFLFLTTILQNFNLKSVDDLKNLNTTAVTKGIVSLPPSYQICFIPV
Outline: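 CYP2C8 activity read as 6α-hydroxypaclitaxel formation by LC-MS/MS, with % inhibition versus vehicle control. Reactions ran 5 min at 37° C, pH 7.4 phosphate buffer, 0.1 mg/mL pooled human liver microsomes, 1 mM NADPH, duplicate wells.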

In the case of `Cn1ccc(S(=O)(=O)N(C2CC2)[C@H]2CCC3=Cc4c(cnn4-c4ccc(F)cc4)C[C@]3(C(=O)c3cc(Cl)ccn3)C2)n1` [Example 225, N-((4aS,6S)-4a-(4-chloropicolinoyl)-1-(4-fluorophenyl)-4,4a,5,6,7,8-hexahydro-1H-benzo[f]indazol-6-yl)-N-cyclopropyl-1-methyl-1H-pyrazole-3-sulfonamide], the IC50 (GR) is reported as no more than 100 nM and the inhibition at 5 min (CYP2C8) is reported as 50 to 75%.
Work on `Cn1cnc(S(=O)(=O)N(C2CCC2)[C@H]2CCC3=Cc4c(cnn4-c4ccc(F)cc4)C[C@]3(C(=O)c3cc(C(F)(F)F)ccn3)C2)c1` [Example 226, N-cyclobutyl-N-((4aS,6S)-1-(4-fluorophenyl)-4a-(4-(trifluoromethyl)picolinoyl)-4,4a,5,6,7,8-hexahydro-1H-benzo[f]indazol-6-yl)-1-methyl-1H-imidazole-4-sulfonamide] yielded an IC50 (GR) of no more than 100 nM and an inhibition at 5 min (CYP2C8) of 50 to 75%.
In the case of `O=C(c1cc(F)ccn1)[C@]12Cc3cnn(-c4ccc(F)cc4)c3C=C1CC[C@H](N(C1CC1)S(=O)(=O)c1ccc(F)cc1)C2` [Example 228, N-cyclopropyl-4-fluoro-N-((4aS,6S)-1-(4-fluorophenyl)-4a-(4-fluoropicolinoyl)-4,4a,5,6,7,8-hexahydro-1H-benzo[f]indazol-6-yl)benzenesulfonamide], the IC50 (GR) is reported as no more than 100 nM and the inhibition at 5 min (CYP2C8) is reported as 50 to 75%.
For `Cn1cc(S(=O)(=O)N(CC2CC2)[C@H]2CCC3=Cc4c(cnn4-c4ccc(F)cc4)C[C@]3(C(=O)c3cc(C(F)(F)F)ccn3)C2)nn1` [Example 229, N-(cyclopropylmethyl)-N-((4aS,6S)-1-(4-fluorophenyl)-4a-(4-(trifluoromethyl)picolinoyl)-4,4a,5,6,7,8-hexahydro-1H-benzo[f]indazol-6-yl)-1-methyl-1H-1,2,3-triazole-4-sulfonamide], the IC50 (GR) was no more than 100 nM and the inhibition at 5 min (CYP2C8) was 50 to 75%.
With `Cn1cc(S(=O)(=O)N(C2CCC2)[C@H]2CCC3=Cc4c(cnn4-c4ccc(F)cc4)C[C@]3(C(=O)c3cc(C(F)(F)F)ccn3)C2)nn1` [Example 230, N-cyclobutyl-N-((4aS,6S)-1-(4-fluorophenyl)-4a-(4-(trifluoromethyl)picolinoyl)-4,4a,5,6,7,8-hexahydro-1H-benzo[f]indazol-6-yl)-1-methyl-1H-1,2,3-triazole-4-sulfonamide] the IC50 (GR) was no more than 100 nM and the inhibition at 5 min (CYP2C8) was 50 to 75%.
Work on `CCN([C@H]1CCC2=Cc3c(cnn3-c3ccc(F)cc3)C[C@]2(C(=O)c2cc(C(F)(F)F)ccn2)C1)S(=O)(=O)c1cn(C)nn1` [Example 231, N-ethyl-N-((4aS,6S)-1-(4-fluorophenyl)-4a-(4-(trifluoromethyl)picolinoyl)-4,4a,5,6,7,8-hexahydro-1H-benzo[f]indazol-6-yl)-1-methyl-1H-1,2,3-triazole-4-sulfonamide] yielded an IC50 (GR) of no more than 100 nM and an inhibition at 5 min (CYP2C8) of 25 to 50%.
`CC(C)N([C@H]1CCC2=Cc3c(cnn3-c3ccc(F)cc3)C[C@]2(C(=O)c2ncc(C(F)(F)F)s2)C1)S(=O)(=O)c1cnn(C)n1` [Example 233, N-((4aS,6S)-1-(4-fluorophenyl)-4a-(5-(trifluoromethyl)thiazole-2-carbonyl)-4,4a,5,6,7,8-hexahydro-1H-benzo[f]indazol-6-yl)-N-isopropyl-2-methyl-2H-1,2,3-triazole-4-sulfonamide] showed an IC50 (GR) of no more than 100 nM and an inhibition at 5 min (CYP2C8) of 75 to 90%.
In the case of `CC(C)N([C@H]1CCC2=Cc3c(cnn3-c3ccc(F)cc3)C[C@]2(C(=O)c2cc(C(F)(F)F)ccn2)C1)S(=O)(=O)c1cnn(C)n1` [Example 234, N-((4aS,6S)-1-(4-fluorophenyl)-4a-(4-(trifluoromethyl)picolinoyl)-4,4a,5,6,7,8-hexahydro-1H-benzo[f]indazol-6-yl)-N-isopropyl-2-methyl-2H-1,2,3-triazole-4-sulfonamide], the IC50 (GR) is reported as no more than 100 nM and the inhibition at 5 min (CYP2C8) is reported as 75 to 90%.
`Cn1ncc(S(=O)(=O)N(CC(C)(C)O)[C@H]2CCC3=Cc4c(cnn4-c4ccc(F)cc4)C[C@]3(C(=O)c3ncc(C(F)(F)F)s3)C2)n1` [Example 236, N-((4aS,6S)-1-(4-fluorophenyl)-4a-(5-(trifluoromethyl)thiazole-2-carbonyl)-4,4a,5,6,7,8-hexahydro-1H-benzo[f]indazol-6-yl)-N-(2-hydroxy-2-methylpropyl)-2-methyl-2H-1,2,3-triazole-4-sulfonamide] was tested, and the IC50 (GR) was no more than 100 nM and the inhibition at 5 min (CYP2C8) was 50 to 75%.
`CC(C)N([C@H]1CCC2=Cc3c(cnn3-c3ccc(F)cc3)C[C@]2(C(=O)c2cc(F)ccn2)C1)S(=O)(=O)c1ccn(C)n1` [Example 241, N-((4aS,6S)-1-(4-fluorophenyl)-4a-(4-fluoropicolinoyl)-4,4a,5,6,7,8-hexahydro-1H-benzo[f]indazol-6-yl)-N-isopropyl-1-methyl-1H-pyrazole-3-sulfonamide] was tested, and the IC50 (GR) was no more than 100 nM and the inhibition at 5 min (CYP2C8) was 75 to 90%.
Molecule `CC(C)N([C@H]1CCC2=Cc3c(cnn3-c3ccc(F)cc3)C[C@]2(C(=O)c2cc(Cl)ccn2)C1)S(=O)(=O)c1ccn(C)n1` [Example 242, N-((4aS,6S)-4a-(4-chloropicolinoyl)-1-(4-fluorophenyl)-4,4a,5,6,7,8-hexahydro-1H-benzo[f]indazol-6-yl)-N-isopropyl-1-methyl-1H-pyrazole-3-sulfonamide] has an IC50 (GR) of no more than 100 nM and an inhibition at 5 min (CYP2C8) of 75 to 90%.
In the case of `CCN([C@H]1CCC2=Cc3c(cnn3-c3ccc(F)cc3)C[C@]2(C(=O)c2cc(C(F)(F)F)ccn2)C1)S(=O)(=O)C1CCCC1` [Example 243, N-ethyl-N-((4aS,6S)-1-(4-fluorophenyl)-4a-(4-(trifluoromethyl)picolinoyl)-4,4a,5,6,7,8-hexahydro-1H-benzo[f]indazol-6-yl)cyclopentanesulfonamide], the IC50 (GR) is reported as no more than 100 nM and the inhibition at 5 min (CYP2C8) is reported as 50 to 75%.
Work on `Cn1ccc(S(=O)(=O)N(CC2CC2)[C@H]2CCC3=Cc4c(cnn4-c4ccc(F)cc4)C[C@]3(C(=O)c3cc(F)ccn3)C2)n1` [Example 244, N-(cyclopropylmethyl)-N-((4aS,6S)-1-(4-fluorophenyl)-4a-(4-fluoropicolinoyl)-4,4a,5,6,7,8-hexahydro-1H-benzo[f]indazol-6-yl)-1-methyl-1H-pyrazole-3-sulfonamide] yielded an IC50 (GR) of no more than 100 nM and an inhibition at 5 min (CYP2C8) of 75 to 90%.
For `Cn1ccc(S(=O)(=O)N(CC2CC2)[C@H]2CCC3=Cc4c(cnn4-c4ccc(F)cc4)C[C@]3(C(=O)c3cc(Cl)ccn3)C2)n1` [Example 245, N-((4aS,6S)-4a-(4-chloropicolinoyl)-1-(4-fluorophenyl)-4,4a,5,6,7,8-hexahydro-1H-benzo[f]indazol-6-yl)-N-(cyclopropylmethyl)-1-methyl-1H-pyrazole-3-sulfonamide], the IC50 (GR) was no more than 100 nM and the inhibition at 5 min (CYP2C8) was 50 to 75%.
Work on `Cn1cc(S(=O)(=O)N(CC(C)(C)O)[C@H]2CCC3=Cc4c(cnn4-c4ccc(F)cc4)C[C@]3(C(=O)c3cc(Cl)ccn3)C2)cn1` [Example 246, N-((4aS,6S)-4a-(4-chloropicolinoyl)-1-(4-fluorophenyl)-4,4a,5,6,7,8-hexahydro-1H-benzo[f]indazol-6-yl)-N-(2-hydroxy-2-methylpropyl)-1-methyl-1H-pyrazole-4-sulfonamide] yielded an IC50 (GR) of no more than 100 nM and an inhibition at 5 min (CYP2C8) of 25 to 50%.
`O=C(c1cc(C(F)F)ccn1)[C@]12Cc3cnn(-c4ccc(F)cc4)c3C=C1CC[C@H](N(C1CC1)S(=O)(=O)c1ccc(F)cc1)C2` [Example 247, N-cyclopropyl-N-((4aS,6S)-4a-(4-(difluoromethyl)picolinoyl)-1-(4-fluorophenyl)-4,4a,5,6,7,8-hexahydro-1H-benzo[f]indazol-6-yl)-4-fluorobenzenesulfonamide] gave an IC50 (GR) of no more than 100 nM and an inhibition at 5 min (CYP2C8) of 50 to 75%.
